Results reported in US7671054B1, “Reverse-turn mimetics and method relating thereto” (Choongwae Pharma Corporation, priority 2001, dated 2010).
Entries after “also recorded” stand apart in the source; their conditions may differ. Blank lines part the entries; values can stand above or below the compound they belong to.

Experiments:
[1] = system: survivin protein; experiment: Western blot analysis of survivin; assay type: cell-based
[2] = system: cultured tumor cells; experiment: FACS analysis, cells in G0; assay type: cell-based; conditions: 5 μM
[3] = system: Ephrin B2 (EphB2) receptor in PC-12 PS-1/L286V cells; experiment: EphB2 receptor expression (immunofluorescence and RT-PCR); assay type: cell-based, Rat; conditions: PS-1/L286V mutant PC-12 cells; 10 μM
Method: Immunofluorescence. Cells were plated at a density of 10,000 cells/cm^2 on sterile coated 22×22 mm coverslips in a 6-well culture plate. Differentiation was initiated, as previously described, for 10 days. The differentiated cells were then fixed in methanol for 15 minutes at −20° C. This is followed by a 15 minutes incubation with PBS+0.1% Triton X-100. The coverslips were incubated with antibodies raised against Ephrin B2 Receptor (Santa Cruz Biotechnology) and Gap-43 (Novus Biologicals) for 40 minutes at 37° C. After a series of washes with PBS-Triton X-100, secondary antibody conjugated to FITC (Jackson ImmunoResearch, Westgrove, Pa.) was applied. All slides images were acquired using a Nikon PCM2000 Laser Scanning Confocal Microscope mounted on a Nikon Eclipse E600 upright microscope (Nikon, Melville, N.Y.).
RT-PCR. To analyze the mRNA levels for Ephrin B2 (EphB2) receptor, total RNA was isolated using Trizol (Invitrogen-GIBCO-BRL, Baltimore, Md.) from differentiated cells. 2 μg RNA was reverse transcribed in a total volume of 20 μl with random hexamer (50 ng), and using the Superscript II reverse transcription system (Invitrogen-GIBCO-BRL), according to manufacturer's guidelines. PCR was carried out in a 50 μl volume containing 5 μl cDNA, 100 pmol primers, 100 μM dNTPs, 1×Taq buffer and 1.5 mM MgCl2. […]

[4] = system: TCF/β-catenin reporter gene transcription in PC-12 PS-1/L286V cells; experiment: TOPFLASH luciferase assay in differentiated PC-12 cells; assay type: cell-based, Rat; conditions: PS-1/L286V mutant PC-12 cells; 10 μM plus NGF
Method: Differentiated PC-12/L286V cells were treated with increasing concentrations of this compound for 4 hours. Transfection was then initiated after this treatment period.
Transfection. PC-12 cells were cultured and differentiated on 60-mm dishes. At the end of the 10-day differentiation period, cells were transfected with 2 μg reporter constructs, TOPFLASH and FOPFLASH, per 60-mm dish. Transfections were performed using Superfect (Qiagen) according to manufacturer's instructions.
Luciferase Assays. Cells were lysed, 6 hours after transfections, in 100 μl of Cell Culture Lysis Reagent (Promega, Madison, Wis.), and scraped into microcentrifuge tubes. Tubes were then centrifuged briefly (about 10 seconds) at 12000 rpm to pellet cell debris. Luciferase activity was measured on 20 μl of cell lysate and 100 μl substrate from the Luciferase Assay System (Promega). Luciferase activity was measure using Packard LumiCount. (Hewlett Packard). Quantitation of luciferase was performed in triplicates, and repeated in at least three independent experiments.

[5] = system: survivin in SW480 cells; experiment: Survivin immunofluorescence microscopy; assay type: cell-based
[6] = system: caspase-3/7 in HCT116 cells; experiment: Caspase-3/7 activity assay; assay type: cell-based; conditions: 25 μM, 24 hours, compared to CCD18Co cells
Method: (§1) SW480, HCT116, and CCD18Co cells were plated at 10^5 cells per well (96-well plates) for 24 hours prior to treatment. […] 24 hours post treatment, cells were lysed and caspase activity was measured using a caspase-3/7 activity kit (Apo-One Homogeneous caspase-3/7 assay, #G77905, Promega). Relative fluorescence units (RFU) were obtained by subtracting the unit values of the blank (control, without cells) from the experimental measured values.

[7] = system: caspase-3/7 in SW480 cells; experiment: Caspase-3/7 activity assay; assay type: cell-based; conditions: 25 μM, 24 hours, compared to CCD18Co cells
Method: as §1

[8] = system: SW480 cells; experiment: Soft agar colony formation assay; assay type: cell-based
Method: The soft agar colony formation assay was conducted with SW480 cells by some modification of the procedure previously described (Moody et al., “A vasoactive intestinal peptide antagonist inhibits non-small cell lung cancer growth,” Proc. Natl. Acad. Sci. USA. 90:4345-49 (1993)).
Each well (35 mm) of a 6-well plate (Nalge Nunc International, Roskide, Denmark) was coated with 1 ml of 0.8% bottom agar in DMEM medium containing 10% fetal bovine serum. After it was solidified, 1 ml of DMEM medium containing 0.4% top agar, 10% fetal bovine serum, compound doubly concentrated, and 5,000 single viable cells was added to each well. The cultures were incubated at 37° C. in humidified 5% CO2 incubator. Colonies in soft agar were monitored daily and photographed after incubation for 8 days. Colonies>60 μm in diameter were counted.

[9] = system: survivin promoter in wild type, CBP+/−, p300+/− 3T3 cells; experiment: Survivin promoter luciferase reporter in 3T3 cells; assay type: cell-based
Source text: A plasmid containing luciferase under the control of survivin promoter was constructed and transfected into wild type, CBP+/−, or p300+/−3T3 cells.

[10] = system: caspase 2; experiment: Caspase 2 activity in cultured tumor cells; assay type: cell-based; conditions: co-treatment of stausporine (0.5 μM) and Compound D
[11] = target: β-catenin/p300 interaction (Homo sapiens, UniProt Q09472); conditions: Emami et al., Cancer Cell, in press; cited from earlier work
[12] = target: β-catenin/CBP interaction (Homo sapiens, UniProt Q92793); conditions: Emami et al., Cancer Cell, in press; cited from earlier work
[13] = system: survivin promoter in SW480 cells; experiment: Survivin luciferase reporter in SW480 cells; assay type: cell-based; conditions: SW480 cells; various concentrations
[14] = system: cultured tumor cells; experiment: Cell death of cultured tumor cells; assay type: cell-based; conditions: 5.0 μM
[15] = system: survivin promoter occupancy by CBP, β-catenin, Tcf4 and acetylated histone; experiment: ChIP assay on SW480 cells; assay type: cell-based; conditions: 25 μM, 18 hours

Sequence of β-catenin/p300 interaction (Q09472 whole entry): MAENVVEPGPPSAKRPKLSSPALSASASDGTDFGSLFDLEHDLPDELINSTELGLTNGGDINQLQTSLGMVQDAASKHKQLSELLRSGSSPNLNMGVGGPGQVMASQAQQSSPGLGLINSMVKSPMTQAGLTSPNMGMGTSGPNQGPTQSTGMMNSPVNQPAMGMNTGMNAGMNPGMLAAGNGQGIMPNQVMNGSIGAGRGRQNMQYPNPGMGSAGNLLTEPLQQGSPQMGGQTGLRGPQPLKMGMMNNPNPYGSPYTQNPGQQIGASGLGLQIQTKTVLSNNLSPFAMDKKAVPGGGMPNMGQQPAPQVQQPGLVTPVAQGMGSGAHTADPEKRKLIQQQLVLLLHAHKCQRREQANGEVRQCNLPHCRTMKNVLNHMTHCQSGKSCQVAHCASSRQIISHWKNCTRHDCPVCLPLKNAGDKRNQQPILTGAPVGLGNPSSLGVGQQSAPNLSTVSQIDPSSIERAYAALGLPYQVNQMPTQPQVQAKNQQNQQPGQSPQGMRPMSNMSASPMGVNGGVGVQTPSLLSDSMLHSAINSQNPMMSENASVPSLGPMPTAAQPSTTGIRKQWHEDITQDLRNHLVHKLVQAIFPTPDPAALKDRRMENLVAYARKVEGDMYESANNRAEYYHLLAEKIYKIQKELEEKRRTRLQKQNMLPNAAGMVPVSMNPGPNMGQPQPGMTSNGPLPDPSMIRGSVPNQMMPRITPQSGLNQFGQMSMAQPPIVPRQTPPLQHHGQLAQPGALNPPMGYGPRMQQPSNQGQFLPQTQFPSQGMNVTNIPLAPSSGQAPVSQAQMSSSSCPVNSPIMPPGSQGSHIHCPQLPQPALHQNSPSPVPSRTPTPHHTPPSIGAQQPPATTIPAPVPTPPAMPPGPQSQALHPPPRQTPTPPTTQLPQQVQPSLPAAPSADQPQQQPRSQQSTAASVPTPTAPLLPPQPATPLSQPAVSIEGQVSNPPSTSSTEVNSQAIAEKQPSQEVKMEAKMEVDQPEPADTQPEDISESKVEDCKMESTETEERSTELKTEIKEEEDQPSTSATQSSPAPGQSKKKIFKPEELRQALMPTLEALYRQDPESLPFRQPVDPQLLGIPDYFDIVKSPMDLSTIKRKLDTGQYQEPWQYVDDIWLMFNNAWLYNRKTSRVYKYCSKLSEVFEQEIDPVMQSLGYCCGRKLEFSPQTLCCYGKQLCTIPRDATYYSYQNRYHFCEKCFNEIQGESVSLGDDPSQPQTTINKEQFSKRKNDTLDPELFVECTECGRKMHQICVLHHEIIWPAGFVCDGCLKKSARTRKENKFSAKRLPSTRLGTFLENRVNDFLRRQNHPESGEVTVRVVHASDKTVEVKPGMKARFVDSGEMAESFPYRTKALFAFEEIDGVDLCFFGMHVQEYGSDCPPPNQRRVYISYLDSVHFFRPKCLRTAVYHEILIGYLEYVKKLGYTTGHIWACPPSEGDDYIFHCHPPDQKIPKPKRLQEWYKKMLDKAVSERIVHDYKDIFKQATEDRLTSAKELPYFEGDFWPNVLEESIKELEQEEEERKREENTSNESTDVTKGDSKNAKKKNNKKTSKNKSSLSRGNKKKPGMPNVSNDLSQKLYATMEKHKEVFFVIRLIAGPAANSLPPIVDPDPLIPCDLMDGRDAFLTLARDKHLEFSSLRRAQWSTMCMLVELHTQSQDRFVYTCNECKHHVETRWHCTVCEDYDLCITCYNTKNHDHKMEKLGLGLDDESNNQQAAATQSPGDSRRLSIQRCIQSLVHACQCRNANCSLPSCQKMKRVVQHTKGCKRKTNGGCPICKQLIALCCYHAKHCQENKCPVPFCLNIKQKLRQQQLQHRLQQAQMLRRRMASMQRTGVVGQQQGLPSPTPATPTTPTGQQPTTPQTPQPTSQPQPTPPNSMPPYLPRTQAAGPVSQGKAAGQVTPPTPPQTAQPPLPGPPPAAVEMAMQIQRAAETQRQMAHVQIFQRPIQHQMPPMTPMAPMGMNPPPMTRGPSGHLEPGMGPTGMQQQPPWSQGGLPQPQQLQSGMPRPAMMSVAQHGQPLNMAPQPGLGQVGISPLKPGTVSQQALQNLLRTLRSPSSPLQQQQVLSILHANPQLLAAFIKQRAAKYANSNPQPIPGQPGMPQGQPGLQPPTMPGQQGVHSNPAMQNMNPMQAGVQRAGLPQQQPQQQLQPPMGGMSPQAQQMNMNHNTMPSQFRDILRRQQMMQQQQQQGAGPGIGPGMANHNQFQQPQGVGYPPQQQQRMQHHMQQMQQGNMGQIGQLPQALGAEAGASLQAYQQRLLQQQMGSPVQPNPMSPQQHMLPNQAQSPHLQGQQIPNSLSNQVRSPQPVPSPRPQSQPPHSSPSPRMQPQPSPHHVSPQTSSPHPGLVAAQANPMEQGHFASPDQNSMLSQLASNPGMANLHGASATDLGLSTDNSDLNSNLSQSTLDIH
Sequence of β-catenin/CBP interaction (Q92793 whole entry): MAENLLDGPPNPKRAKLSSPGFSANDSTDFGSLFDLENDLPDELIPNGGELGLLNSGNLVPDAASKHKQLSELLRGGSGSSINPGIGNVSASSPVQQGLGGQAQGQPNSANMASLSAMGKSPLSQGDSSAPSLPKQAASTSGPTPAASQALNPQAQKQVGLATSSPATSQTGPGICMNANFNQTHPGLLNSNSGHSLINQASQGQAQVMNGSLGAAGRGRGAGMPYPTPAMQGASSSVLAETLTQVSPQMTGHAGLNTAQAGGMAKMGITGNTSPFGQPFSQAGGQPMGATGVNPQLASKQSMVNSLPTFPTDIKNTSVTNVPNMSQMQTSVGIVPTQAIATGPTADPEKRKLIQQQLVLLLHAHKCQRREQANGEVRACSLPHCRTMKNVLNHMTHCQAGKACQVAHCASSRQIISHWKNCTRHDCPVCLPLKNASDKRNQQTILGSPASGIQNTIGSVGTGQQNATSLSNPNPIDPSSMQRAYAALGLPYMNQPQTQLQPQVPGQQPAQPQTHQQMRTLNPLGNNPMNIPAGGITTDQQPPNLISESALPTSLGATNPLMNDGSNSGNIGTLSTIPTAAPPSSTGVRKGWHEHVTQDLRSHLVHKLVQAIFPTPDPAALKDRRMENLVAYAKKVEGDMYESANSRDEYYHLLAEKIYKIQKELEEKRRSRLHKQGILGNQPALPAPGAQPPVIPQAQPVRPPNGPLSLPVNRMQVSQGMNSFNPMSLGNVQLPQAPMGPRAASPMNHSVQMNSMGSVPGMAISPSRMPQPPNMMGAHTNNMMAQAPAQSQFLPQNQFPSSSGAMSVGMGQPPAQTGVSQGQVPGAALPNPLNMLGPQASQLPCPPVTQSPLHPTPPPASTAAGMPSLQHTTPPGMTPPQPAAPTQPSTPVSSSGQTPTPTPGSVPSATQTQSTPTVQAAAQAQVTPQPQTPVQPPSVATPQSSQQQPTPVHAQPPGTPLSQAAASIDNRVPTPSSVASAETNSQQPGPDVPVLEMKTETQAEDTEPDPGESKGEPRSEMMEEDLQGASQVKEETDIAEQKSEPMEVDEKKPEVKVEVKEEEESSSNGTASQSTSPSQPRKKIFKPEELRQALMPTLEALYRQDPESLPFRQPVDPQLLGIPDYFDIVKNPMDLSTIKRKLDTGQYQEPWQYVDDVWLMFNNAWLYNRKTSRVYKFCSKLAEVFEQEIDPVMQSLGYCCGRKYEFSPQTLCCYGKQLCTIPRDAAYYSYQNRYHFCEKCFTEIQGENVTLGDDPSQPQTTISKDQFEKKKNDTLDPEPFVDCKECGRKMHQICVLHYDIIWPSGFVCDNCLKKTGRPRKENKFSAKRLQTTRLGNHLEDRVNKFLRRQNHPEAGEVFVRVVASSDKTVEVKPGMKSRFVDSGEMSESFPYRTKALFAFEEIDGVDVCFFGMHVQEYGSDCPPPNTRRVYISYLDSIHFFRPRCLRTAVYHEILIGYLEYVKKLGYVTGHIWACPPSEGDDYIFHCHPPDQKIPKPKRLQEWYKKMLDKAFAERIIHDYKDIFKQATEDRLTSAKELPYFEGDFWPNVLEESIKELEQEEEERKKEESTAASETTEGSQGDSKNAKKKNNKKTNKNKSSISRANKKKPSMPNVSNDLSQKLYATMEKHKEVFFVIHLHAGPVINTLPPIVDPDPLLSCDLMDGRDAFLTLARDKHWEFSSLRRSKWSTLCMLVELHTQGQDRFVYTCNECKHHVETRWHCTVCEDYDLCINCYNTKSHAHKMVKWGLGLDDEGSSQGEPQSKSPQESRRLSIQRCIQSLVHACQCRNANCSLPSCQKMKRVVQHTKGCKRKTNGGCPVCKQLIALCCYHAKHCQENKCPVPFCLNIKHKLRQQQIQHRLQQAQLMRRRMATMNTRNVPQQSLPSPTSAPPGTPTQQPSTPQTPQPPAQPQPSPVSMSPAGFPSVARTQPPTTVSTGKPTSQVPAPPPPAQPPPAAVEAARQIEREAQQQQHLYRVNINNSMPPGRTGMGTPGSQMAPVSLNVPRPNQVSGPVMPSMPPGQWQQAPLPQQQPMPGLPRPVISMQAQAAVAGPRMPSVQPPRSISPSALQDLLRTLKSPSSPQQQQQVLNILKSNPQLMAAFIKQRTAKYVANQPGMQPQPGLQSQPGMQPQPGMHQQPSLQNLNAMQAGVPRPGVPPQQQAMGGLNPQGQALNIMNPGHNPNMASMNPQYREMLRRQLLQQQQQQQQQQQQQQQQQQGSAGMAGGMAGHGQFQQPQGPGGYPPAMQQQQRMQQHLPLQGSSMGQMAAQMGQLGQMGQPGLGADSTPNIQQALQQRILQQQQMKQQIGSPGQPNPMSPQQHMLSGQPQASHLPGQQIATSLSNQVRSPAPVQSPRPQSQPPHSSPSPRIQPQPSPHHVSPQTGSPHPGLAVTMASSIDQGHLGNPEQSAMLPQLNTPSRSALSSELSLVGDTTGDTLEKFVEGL

IC50 ([8]; Homo sapiens, 192 h, 8 days, colonies >60 μm): 870 ± 110 nM
Structure (SMILES): O=C1[C@H](Cc2ccc(O)cc2)N2C(=O)CCN(C(=O)NCc3ccccc3)[C@H]2CN1Cc1cccc2ccccc12 [Compound D]
amount of survivin protein (Western blot) ([1]; 10 μM): reduced the amount of the survivin protein
amount of survivin protein (Western blot) ([1]; 25 μM): reduced the amount of the survivin protein
number of cells in G0 (FACS) [2]: increases the number of cells in G0
EphB2 message (RT-PCR) [3]: increased EphB2 message; also recorded: upregulates EphB2 message
EphB2 receptor expression (immunofluorescence) [3]: increased EphB2 receptor expression
TCF/β-catenin reporter gene transcription [4]: decreased TCF/β-catenin reporter gene transcription
survivin protein (immunofluorescence microscopy) [5]: little or no survivin protein was detected
caspase-3/7 activity [6]: selectively activates caspases in colon carcinoma cell lines
caspase-3/7 activity [7]: selectively activates caspases in colon carcinoma cell lines
number of colonies formed in soft agar ([8]; 0.25-5 μM): reduces colony growth in soft agar in a dose dependent manner
survivin gene expression (luciferase under survivin promoter) [9]: reduces expression of the survivin gene; also recorded: knout-down
Wnt1 stimulation of survivin gene expression ([9]; with Wnt1): decreases the stimulation of the survivin gene expression by Wnt1
caspase 2 activity, co-treatment [10]: not a synergic stimuation of the caspase 2 activity
β-catenin/p300 interaction [11]: not the β-catenin/p300 interaction
β-catenin/CBP interaction [12]: selectively blocks the β-catenin/CBP interaction
survivin luciferase reporter activity [13]: inhibit expression of survivin; also recorded: inhibit the activity of a survivin luciferase reporter
cell death [14]: promotes cell death
association of CBP, β-catenin, Tcf4 and acetylated histone with the survivin promoter (ChIP) [15]: decreases the association of all these proteins with the survivin promoter; also recorded: decreases the association of various proteins with the survivin promoter

Structure (SMILES): O=c1[nH]cc(F)c(=O)[nH]1 [Compound 5-FU, 5-fluorouracil]
amount of survivin protein (Western blot) ([1]; 5 μM): reduced the amount of the survivin protein
